Data reported in patent publication US9988635B2, “Modulation of growth hormone receptor expression and insulin-like growth factor expression” (Antisense Therapeutics Limited, priority 2003, dated 2018).
In the oligonucleotide strings, read from the 5' end, every base follows the letter of its sugar. An asterisk marks phosphorothioate; unmarked linkages are phosphodiester. Other units and linkages are bracketed, terminal groups are in braces. A string of capitals states the bases alone. e = 2'-O-(2-methoxyethyl) (MOE); [5mC] = 5-methylcytosine; d = 2'-deoxy (DNA)

Columns and labels:
[1] = system: serum insulin-like growth factor-I; assay: Serum IGF-I by radioimmunoassay, 1 week pilot study in Balb/C(a) mice; assay type: in vivo, mouse
Protocol: Forty male Balb/C(a) mice weighing 9 to […] were placed into cages, 4 animals per cage, and allowed to assimilate into their environment with new littermates ˜1 week prior (Day −7) to the commencement of 1 week study. Mice of this age would be at their maximum growth rate. Their body weights were measured and recorded every second day during this period. When mice weighed 11 g (day −2), a blood sample was collected under anesthesia as described below, and a serum IGF-I assay was performed to determine pre-treatment values and to aid in the assigning of mice to treatment groups in order to reduce animal variability. To obtain the blood sample, the animals were anaesthetized with pentobarbital (50 mg/kg i.p.) and non-fasting blood samples collected exactly 5 minutes later from the retrobulbar plexus through heparinized capillary tubes under light ether anesthesia. The 40 animals were placed into five groups with each group having a similar weight average and similar IGF-I average concentration for the trial.
Animals (n=8/group) were designated to the following five treatment groups:
(§1) Saline, antisense, mismatch control and octreotide samples were prepared, and coded for blinding. Animals were given a subcutaneous dose of saline every second day, and mismatch control or antisense with administration on days 0, 2, 4, 6. Animals were given twice daily doses of 25 μg octreotide. Animals were housed 4 per cage, for the duration of one week. They had access to a pre-determined quantity of standard mouse food and water at all times throughout the experiment. They were housed in a quiet, temperature- and humidity-maintained environment for the entirety of the study. At day 0 and before treatment on each day or second day, the animals had their body weight and food intake measured, enabling the correct dose of agent to be administered. The animals were monitored closely for any changes in fur, skin, eye, locomotion or other changes in behavior. No problems were observed. Every second day from day −7 to day 7 body weight and food intake were measured.
On day 7, one day after the last dose of antisense, and/or after the last octreotide dose, the animals were anaesthetized with pentobarbital (50 mg/kg i.p.) and non-fasting blood samples collected exactly 5 minutes later from the retrobulbar plexus through heparinized capillary tubes under light ether anesthesia (as on day −7 and 0).
At day −2 and day 7, serum IGF-I measurement was done by radioimmunoassay. Serum IGF-I level is the most widely used measure of growth hormone biological activity in human therapy. It is used to measure the efficacy of growth hormone antagonist treatments like Trovert, which block cells' responsiveness to excess growth hormone, and dopamine agonists and octreotide somatostatin […] drugs that block growth hormone secretion from the pituitary.

growth hormone receptor = assay: [125I] hGH specific binding assay on liver microsomal membranes of treated mice; assay type: in vivo, mouse
Protocol: Specific binding assays were carried out with liver tissue using iodinated human growth hormone [^125I] hGH.
Microsomal membrane preparations were obtained as follows. 400 mg of tissue powder was homogenized in cold homogenizing buffer (50 mM Tris/HCl, 250 mM sucrose, pH 7.4). This was centrifuged at 2000 rpm for 10 min at 3° C. and the supernatant was saved. This was centrifuged again at 15,000 rpm for 20 min. Pellets were resuspended in 0.5 ml of RRA buffer with inhibitor (50 mM Tris, 20 mM MgCl2, pH 7.4). Microsomal preparation samples were stored at −80° C. until the specific binding assay.
The [^125I] hGH specific binding assay was done as follows. Four glass tubes were set up for each sample, two for (−), two for (+). Different sample and solutions were added in each tube as follows (i) 0.2 ml RRA buffer (50 mM Tris, 20 mM MgCl2, 0.1% BSA, pH 7.4); (ii) 0.1 ml membrane (½ or ¼ dilution); (iii) 0.1 ml bGH (10 μg/ml) for the (+) tube or 0.1 ml RRA buffer for the (−) tube; and (iv) 0.1 ml [^125I]-hGH tracer.
Samples were incubated at 4° C. with shaking overnight. The reaction was stopped with 2.5 ml of cold RRA, and the sample centrifuged at 2800 rpm for 25 min at 4° C. Supernatant was aspirated and pellets counted using the γ-counter. The specific binding capacity was calculated as: CPM(−)-CPM(+). Protein content of the microsomal samples was determined by the BCA protein assay.

[2] = system: growth hormone receptor mRNA; assay: Growth hormone receptor mRNA levels in liver, 2 week study; assay type: in vivo, mouse; conditions: 30 mg/kg; two-week study
Protocol: (§2) A two-week study was done in similar fashion to the one-week study in Example 18, this time using ISIS 227446 at doses of 3, 5, 10, 20 and 30 mg/kg. The mismatch control was given at the same doses. Mice were treated with antisense compound or saline every other day for 14 days.
Growth hormone receptor mRNA levels in liver tissue samples from treated and untreated mice in this two-week study were assayed. The growth hormone receptor antisense inhibitor ISIS 227446 reduced growth hormone receptor mRNA levels in liver after the two-week study by 50% at the 20 mg/kg dose relative to saline control (p<0.001). The 30 mg/kg dose of ISIS 227446 yielded a 53% decrease in growth hormone receptor mRNA (p<0.0001). The mismatch control oligonucleotide ISIS 261303 (SEQ ID NO: 267), at 30 mg/kg, reduced growth hormone receptor mRNA levels by approximately 3%.

[3] = cited from earlier work
serum IGF-I [4] = conditions: animal models; decreased tumor volume in breast cancer; cited from earlier work
[5] = Body weight, body length, organ weights and food intake, 1 week pilot study; assay type: in vivo, mouse; conditions: 30 mg/kg every second day
Protocol: as §1
The serum remaining following the insulin-like growth factor-1 assay was isolated and stored at −80° C. The whole liver was removed rapidly for weighing and snap-frozen in labelled aluminum parcels by submersion in liquid-nitrogen. […]
This confirms published results of others. […] Weight was measured in two ways: weight trend (live animal), and final carcass weight. […]

serum IGF-I [6] = assay: Serum IGF-I, 2 week study in mice; assay type: in vivo, mouse; conditions: 3 mg/kg; equivalent to saline (untreated) control (separate experiment)
Protocol: as §2
P-values were determined by t-test.

[7] = 30 mg/kg s.c. once every 2 days, 1 week
[8] = liver microsomal membranes, 30 mg/kg every second day for one week
[9] = 30 mg/kg s.c. every second day for one week
[10] = 30 mg/kg every second day for one week

ISIS 261303: negative control oligonucleotide, 8-base mismatch to ISIS 227446 (DNA AGAGAGCTACCTAACTAACA; chemistry not given here) [reference compound]
% IGF-I reduction at day 7 compared to saline control at day 7 [1, 7]: 21% | IGF-I (ng/ml) Day 7 [1, 7]: 81.1 ± 19.16 ng/mL | % IGF-I reduction at day 7 compared to saline control at day 7 ([1]; 30 mg/kg s.c. once every 2 days, 1 week, listed as Mismatch): 20.98% | IGF-I (ng/ml) Day −2 ([1]; pre-treatment value, 30 mg/kg once every 2 days group): 184.87 ± 55.6 ng/mL | effect on growth hormone receptor levels compared to the control saline group (growth hormone receptor; 30 mg/kg): no effect | Specific binding/mg protein (cpm) ¼ dilution (growth hormone receptor; [8]): 8431 ± 2663 cpm | Specific binding/mg protein (cpm) ½ dilution (growth hormone receptor; [8]): 7090 ± 1877 cpm | reduction of growth hormone receptor mRNA levels in liver [2]: approximately 3%

Pegvisomant [Trovert]
drop-out rate ([3]; clinical trial experience): 10% | serum insulin-like growth factor-I levels reduced by ([3]; human therapeutic Trovert doses, 12 week and greater than 1 year studies): 50% | antibodies being made to Trovert, time of dosing ([3]; immunogenicity): ≤ 1 month | effective in % of patients ([3]; patients with acromegaly): 90-95% | reduction of serum IGF-I (serum IGF-I [4]): 20-50%

acaaagatccatacctgaga (eA*e[5mC]*eA*eA*eA*dG*dA*dT*d[5mC]*d[5mC]*dA*dT*dA*d[5mC]*d[5mC]*eT*eG*eA*eG*eA; antisense) [ISIS 227446]
serum IGF-I as % of the control (saline) group [1, 9]: 55% | % IGF-I reduction at day 7 compared to saline control at day 7 [1, 7]: 45% | % IGF-I reduction at day 7 compared to saline control at day 7 ([1]; 30 mg/kg s.c. once every 2 days, 1 week, listed as ASO): 44.51% | influence on body weight or organ weights [5]: not sufficient to influence body weight or organ weights | reduction of specific binding compared to saline, ¼ dilution (growth hormone receptor; [10]): 39% | reduction of specific binding compared to saline, ½ dilution (growth hormone receptor; [10]): 26% | growth hormone receptor levels (growth hormone binding activity) as % of control (saline) group (growth hormone receptor; [9]): 61% | growth hormone receptor levels as % of the control (mismatch) group (growth hormone receptor; ½ dilution experiment, 30 mg/kg): 59% | reduction of growth hormone receptor mRNA levels in liver [2]: 53% | effect on serum IGF-I levels (serum IGF-I [6]): no effect
